Laboratory results as given in publication PMC11016601, “Exploring the bioaccessibility and intestinal absorption of major classes of pure phenolic compounds using in vitro simulated gastrointestinal digestion” (Heliyon, 2024).
In brackets after ≈: the same amount, converted by molar mass. Several values for one entry are separate records, joined by “and”; a condition that tells them apart may be missing. Equal values may be shown once. Read-outs that look alike come from different tables or passages of the source. Marks after values point to notes of the source that are not given here.

Key:
Caco-2 cell monolayers = settings: Caco-2 monolayers; cited from earlier work
[1] = design: method as in doi:10.1016/J.JFF.2016.08.003; settings: cited from earlier work
[2] = Simulation of intestinal absorption using a dialysis membrane (3 kDa) after in vitro SGD
Source text: HPLC-grade methanol, water, and acetonitrile were supplied by Fisher Scientific Chemicals. The enzymes α-amylase (A1031), pepsin from porcine stomach mucosa (P7012), pancreatin from porcine pancreas (P7545), and bile salts (B863) were purchased from Sigma-Aldrich (Taufkirchen, Germany). The rabbit gastric extract (RGE15) with gastric lipase activity was purchased from Lipolytech (Marseille, France). The ethanol was purchased from Merck (Algés, Portugal). A dialysis membrane with a molecular pore size of 3 kDa was purchased from Spectra/Pro (Spectrum Lab, Breda, Netherlands).
(§1) Mouth digestion of each PC solution (1 mL) was diluted in 0.8 mL of simulated salivary fluid (SSF) and α-amylase (75 U mL-1). Then, the mixture was incubated for 2 min at 37 °C under agitation (200 rpm). In order to start gastric digestion, pH was adjusted to 3.0 using 1 M aqueous HCl and then, a pepsin solution (2000 U mL-1) and simulated gastric fluid (SGF) were added. Subsequently, the mixture was incubated for 2h, at 37 °C and 130 rpm orbital agitation for the stomach digestion. Finally, the small intestine digestion simulation was performed after pH adjustment to 7.0 using 1 M aqueous […] and the addition of pancreatin (100 U mL-1), bile salts solution (10 mM) and simulated intestinal fluid (SIF), during 2 h, at 37 °C with 45 rpm orbital agitation. Natural small intestine absorption was also simulated, by placing the remaining sample in a dialysis membrane, and immersed in distilled water overnight at room temperature.
Furthermore, to determine the intestinal absorption, the aliquots collected inside the dialysis membrane were analyzed. The concentration of these samples (from inside of the membrane) corresponds to the amount of each PC that has not passed through to the outside of the membrane.
(§2) The values of B% and IA% were the average of the three replicates performed, with the calculated standard deviation.

[3] = In vitro simulated gastrointestinal digestion (SGD, INFOGEST 2.0): concentration and bioaccessibility by UHPLC-DAD-MSn; settings: for Bioaccessibility (%), initial solution (IS): reference
Procedure: Preliminary solubility tests in different solvents, namely water, sodium phosphate buffer (26.8 mM, pH 6.1), ethanol, and also a mixture of ethanol with both water and sodium phosphate buffer, were carried out for each PC (data not shown), to prevent erroneous data arising from compounds precipitation. Ethanol percentages used in these preliminary solubility tests were 10, 15, and 20% (v/v).
Each PC solubilized in ethanol:water (15% v/v) was then submitted to an in vitro SGD (INFOGEST 2.0), according to a standardized protocol (Fig. 2). In order to determine whether the interaction between the compounds and enzymes led to an underestimation of their content, each PC solution was submitted to the same digestion procedure, replacing the enzyme solutions with water, which were designed as controls, henceforth this will be the term used. Each sample and control were submitted to three independent in vitro digestion simulations, and after each digestion phase, a sample/control was collected and further analyzed and quantified by UHPLC-DAD-MSn.
as §1
At each sampling point, an aliquot (0.5 mL) from each of the three replicates was collected. The enzymatic activity was stopped immediately by adding pure methanol to each aliquot (1:1, v/v) to promote enzyme precipitation and subsequently centrifuged at 10 000 g and 4 °C for 5 min. The supernatants were filtered with a 0.2 μm nylon filter. To determine the concentration of each sample or control, it was considered the following dilution factor – 1:2, 1:4 and 1:8 for oral, gastric and intestinal digestion phase, respectively.
The bioaccessibility percentage (B%) of each PC was calculated using equation (1):(1) B(%)=[DS]/[IS]×100 where IS is the initial concentration of PCs in ethanol:water (15% v/v) solutions, DS is the concentration of each collected sample or control (without enzymes).
as §2
PCs were analyzed in a UHPLC system equipped with a variable loop Accela autosampler (set at 16 °C), an Accela 600 LC pump, and an Accela 80 Hz photo diode array detector (DAD) (Thermo Fisher Scientific, San Jose, CA, USA). Each sample was prepared in methanol:water (1:1, v/v) and filtered through a 0.2 μm nylon syringe filter. […] The mobile phase was composed of acetonitrile (A) and water:acetonitrile (99:1, v/v) (B), both with 0.1 % of formic acid. The gradient elution was performed as follows: 0–1min: 99% B; 1–17 min: 99-73% B, 17–20 min: 73-0% B, 20–25 min: 0–99% B, followed by re-equilibration of the column at 99% B for 4 min.

[4] = design: method as in earlier work; settings: cited from earlier work
[5] = design: method as in PMID 19375897; settings: cited from earlier work
[6] = controls (without enzymes), gastric phase
[7] = controls (without enzymes), initial solution
[8] = controls (without enzymes), intestinal phase
[9] = controls (without enzymes), oral phase
[10] = samples with enzymes, after gastric digestion pH 3.0
[11] = samples with enzymes, after intestinal digestion pH 7.0
[12] = samples with enzymes, after oral digestion
[13] = samples with enzymes, gastric phase
[14] = samples with enzymes, intestinal phase
[15] = samples with enzymes, oral phase
[16] = samples, initial ethanol:water (15% v/v) solution

Row | Compound | permeability class from Papp, apical-to-basolateral direction (Caco-2 cell monolayers) | Bioaccessibility (%), gastric phase (G) [3, 6] | Concentration, gastric phase (G) [3, 6] | Concentration, initial solution (IS) [3, 7] | Bioaccessibility (%), initial solution (IS) [3, 7] | Bioaccessibility (%), intestinal phase (I) [3, 8] | Concentration, intestinal phase (I) [3, 8] | Bioaccessibility (%), oral phase (O) [3, 9] | Concentration, oral phase (O) [3, 9] | Concentration, gastric phase (G) [3, 10] | Concentration, intestinal phase (I) [3, 11] | Concentration, oral phase (O) [3, 12] | Bioaccessibility (%), gastric phase (G) [3, 13] | Bioaccessibility (%), intestinal phase (I) [3, 14] | Bioaccessibility (%), oral phase (O) [3, 15] | Concentration, initial solution (IS) [3, 16] | Bioaccessibility (%), initial solution (IS) ([3]; samples, initial solution) | Bioaccessibility (%), oral phase (O) ([3]; 2 min) | Concentration, dialysis phase (D) [2] | further results
1 | C[C@@H]1O[C@@H](OC[C@H]2O[C@@H](Oc3c(-c4ccc(O)c(O)c4)oc4cc(O)cc(O)c4c3=O)[C@H](O)[C@@H](O)[C@@H]2O)[C@H](O)[C@H](O)[C@H]1O [RUT, rutin] | low-permeable | 97.20 ± 2.29 ^a,b % | 317060 ± 7460 ng/mL | 326190 ng/mL | 100 ^a,b % | 87.44 ± 5.94 ^b % | 285210 ± 19380 ng/mL | 101.57 ± 2.61^ a % | 331.30 ± 8.52 µg/mL | 320450 ± 11330 ng/mL | 265680 ± 13370 ng/mL | 281.60 ± 67.69 µg/mL | 98.24% and 98.24 ± 3.47^ a % | 81.45% and 81.45 ± 4.10^ a % | 86.33% and 86.33 ± 20.75^ a % | 326190 ng/mL | 100^ a % | – | – | percentage collected from inside of dialysis membrane ([1]; after in vitro gastrointestinal digestion): 1.65%; IA% ([1]; dialysis membrane): about 98%; Concentration, dialysis phase (D) ([2]; controls (without enzymes), aliquot from inside the dialysis membrane): 15120 ± 5540 ng/mL; Intestinal absorption (IA%) ([2]; controls (without enzymes), dialysis membrane): 94.75% and 94.75 ± 1.72%; Concentration, dialysis phase (D) ([2]; samples with enzymes, aliquot from inside the dialysis membrane): 22240 ± 1520 ng/mL; Intestinal absorption (IA%) ([2]; samples with enzymes, dialysis membrane): 91.63% and 91.63 ± 0.28%; formation of metabolites during in vitro SGD (UHPLC-DAD-MSn) ([3]; samples with enzymes): produced a metabolite after intestinal digestion simulation
2 | O=c1cc(-c2ccc(O)cc2)oc2cc(O)cc(O)c12 [APG, apigenin] | – | 15.20% and 15.20 ± 3.04 ^d % | 1420 ± 280 ng/mL | 9330 ng/mL | 100 ^c % | 158.32 ± 5.05 ^a % | 14780 ± 470 ng/mL | 134.98 ± 8.17 ^b % | 12.60 ± 0.76 µg/mL | 2580 ± 470 ng/mL | 13740 ± 1220 ng/mL | 11.86 ± 0.11 µg/mL | 27.60% and 27.60 ± 5.02^ c % | 147.20% and 147.20 ± 13.05 ^a % | 127.10% | 9330 ng/mL | 100 ^b % | 127.10 ± 1.17 ^a,b % | – | bioaccessible fraction after intestinal digestion relative to the gastric phase [4]: 2 fold
3 | O=C(CCc1ccc(O)cc1)c1c(O)cc(O)cc1O [PH, phloretin] | low-permeable | 91.73% and 91.73 ± 13.24 ^a,b % | 264550 ± 38180 ng/mL | 288390 ng/mL | 100 ^a,b % | 58.91% and 58.91 ± 16.19 ^b % | 169910 ± 46690 ng/mL | 111.74% and 111.74 ± 7.23^ a % | 322.24 ± 20.85 µg/mL | 210150 ± 21970 ng/mL | 148670 ± 32070 ng/mL | 278.19 ± 30.82 µg/mL | 72.87 ± 7.62 ^a,b % | 51.55% and 51.55± 11.12 ^b % | 96.46% | 288390 ng/mL | 100^ a % | 96.46 ± 10.69^ a % | 17180 ± 2010 ng/mL | Concentration, dialysis phase (D) ([2]; pig): 26350 ± 10090 ng/mL
4 | O=c1c(O)c(-c2ccc(O)c(O)c2)oc2cc(O)cc(O)c12 [QUE, quercetin] | low-permeable | – | – | 39890 ng/mL | 100% | 17.59 ± 1.70% | 7020 ± 700 ng/mL | – | 13.64** μg mL^-1 | 2740 ± 630 ng/mL | 7330 ± 100 ng/mL | 22.83 ± 2.78 µg/mL | 6.87% and 6.87 ± 1.57^ c % | 18.36% and 18.36 ± 0.26^ c % | 57.23% | 39890 ng/mL | 100^ a % | 57.23 ± 6.98^ b % | below the detection limit | solubility ([5]; pH 1.5): 5.5 µg/mL (≈ 18.2 µM); solubility ([5]; pH 7.5): 28.9 µg/mL (≈ 95.6 µM); Intestinal absorption (IA%) [2]: very high
